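Each compound was tested at five concentrations against cells in 96-well plates for 48 hours. At the GI50, growth is halved.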 Activity calls are given as the source filed them. Cut-off read from the data, not from the text of the source: active = GI50 up to about 1.1 µM and inactive = higher.
How the values were obtained:
Test in all cases: NCI anticancer screen, dose series, 48 h
RXF 631 = system: RXF 631
IGROV-1 = system: IGROV-1
NCI-H460 = system: NCI-H460
HCT-15 = system: HCT-15
NCI-H23 = system: NCI-H23
SNB-75 = system: SNB-75
COLO 205 = system: COLO 205
DMS-114 = system: DMS-114
HCC 2998 = system: HCC 2998
XF498 = system: XF498
NCI-H522 = system: NCI-H522
SK-OV-3 = system: SK-OV-3
A498 = system: A498
SN12C = system: SN12C
HOP-18 = system: HOP-18
UACC-62 = system: UACC-62
UACC-257 = system: UACC-257
SK-MEL-5 = system: SK-MEL-5
DLD-1 = system: DLD-1
SNB-19 = system: SNB-19
NCI-H226 = system: NCI-H226
KM-20L2 = system: KM-20L2
SR = system: SR
RXF 393 = system: RXF 393
RPMI-8226 = system: RPMI-8226
OVCAR-3 = system: OVCAR-3
HL-60 = system: HL-60
SK-MEL-28 = system: SK-MEL-28
UO-31 = system: UO-31
Malme-3M = system: Malme-3M
CCRF-CEM = system: CCRF-CEM
A549 = system: A549
M19-MEL = system: M19-MEL
U-251 = system: U-251
LOX IMVI = system: LOX IMVI
M14 = system: M14
HOP-92 = system: HOP-92
OVCAR-5 = system: OVCAR-5
OVCAR-8 = system: OVCAR-8
EKVX = system: EKVX
HT-29 = system: HT-29
TK-10 = system: TK-10
SNB-78 = system: SNB-78
ACHN = system: ACHN
K562 = system: K562
SF-295 = system: SF-295
HCT-116 = system: HCT-116
SK-MEL-2 = system: SK-MEL-2
SF-268 = system: SF-268
MOLT-4 = system: MOLT-4
KM12 = system: KM12
SF-539 = system: SF-539
786-0 = system: 786-0
HOP-62 = system: HOP-62
LXFL 529 = system: LXFL 529
CAKI-1 = system: CAKI-1
OVCAR-4 = system: OVCAR-4
SW-620 = system: SW-620
DMS-273 = system: DMS-273

In the case of CN1CC[C@]2(C)c3ccc(O)cc3CC3CCCC1C32C (some centres undefined), the GI50 (RXF 631) is reported as > 100 µM (inactive), the GI50 (IGROV-1) is reported as > 100 µM (inactive) and the GI50 (NCI-H460) is reported as > 100 µM (inactive). For the same molecule, the GI50 (HCT-15) was > 100 µM, the GI50 (NCI-H23) was > 100 µM (inactive) and the GI50 (SNB-75) was 80.9 µM (inactive). The GI50 (COLO 205) was > 100 µM (inactive), the GI50 (DMS-114) was > 100 µM (inactive) and the GI50 (HCC 2998) was > 100 µM (inactive). The GI50 (XF498) was > 100 µM (inactive), the GI50 (NCI-H522) was > 100 µM (inactive) and the GI50 (SK-OV-3) was > 100 µM (inactive). The GI50 (A498) was > 100 µM (inactive), the GI50 (SN12C) was > 100 µM (inactive) and the GI50 (HOP-18) was > 100 µM (inactive). The GI50 (UACC-62) was > 100 µM (inactive), the GI50 (UACC-257) was > 100 µM (inactive) and the GI50 (SK-MEL-5) was > 100 µM (inactive). For the same molecule, the GI50 (DLD-1) was > 100 µM (inactive), the GI50 (SNB-19) was > 100 µM (inactive) and the GI50 (NCI-H226) was > 100 µM (inactive). The GI50 (KM-20L2) was > 100 µM (inactive), the GI50 (SR) was > 100 µM (inactive) and the GI50 (RXF 393) was > 100 µM (inactive). For the same molecule, the GI50 (RPMI-8226) was > 100 µM (inactive), the GI50 (OVCAR-3) was > 100 µM (inactive) and the GI50 (HL-60) was > 100 µM (inactive). For the same molecule, the GI50 (SK-MEL-28) was > 100 µM (inactive), the GI50 (UO-31) was 92.3 µM (inactive) and the GI50 (Malme-3M) was > 100 µM (inactive). For the same molecule, the GI50 (CCRF-CEM) was > 100 µM (inactive), the GI50 (A549) was > 100 µM (inactive) and the GI50 (M19-MEL) was > 100 µM (inactive). For the same molecule, the GI50 (U-251) was > 100 µM (inactive), the GI50 (LOX IMVI) was > 100 µM (inactive) and the GI50 (M14) was > 100 µM (inactive). The GI50 (HOP-92) was > 100 µM (inactive), the GI50 (OVCAR-5) was > 100 µM (inactive) and the GI50 (OVCAR-8) was > 100 µM (inactive). The GI50 (EKVX) was > 100 µM (inactive), the GI50 (HT-29) was > 100 µM (inactive) and the GI50 (TK-10) was > 100 µM (inactive). For the same molecule, the GI50 (SNB-78) was > 100 µM (inactive), the GI50 (ACHN) was > 100 µM (inactive) and the GI50 (K562) was > 100 µM (inactive). The GI50 (SF-295) was > 100 µM (inactive), the GI50 (HCT-116) was > 100 µM (inactive) and the GI50 (SK-MEL-2) was > 100 µM (inactive). For the same molecule, the GI50 (SF-268) was > 100 µM (inactive), the GI50 (MOLT-4) was > 100 µM (inactive) and the GI50 (KM12) was > 100 µM (inactive). For the same molecule, the GI50 (SF-539) was > 100 µM (inactive), the GI50 (786-0) was > 100 µM (inactive) and the GI50 (HOP-62) was > 100 µM (inactive). The GI50 (LXFL 529) was > 100 µM (inactive) and the GI50 (CAKI-1) was > 100 µM (inactive).
CCSC(SCC)c1cc2c(cc1Br)OCO2 was tested, and the GI50 (RXF 631) was 13.1 µM (inactive), the GI50 (IGROV-1) was 55.8 µM (inactive) and the GI50 (NCI-H460) was 18.5 µM (inactive). The GI50 (HCT-15) was 9.64 µM, the GI50 (NCI-H23) was 26.7 µM (inactive) and the GI50 (SNB-75) was 18.8 µM (inactive). For the same molecule, the GI50 (COLO 205) was 15.2 µM (inactive), the GI50 (DMS-114) was 15.5 µM (inactive) and the GI50 (HCC 2998) was 17.8 µM (inactive). For the same molecule, the GI50 (XF498) was 20.4 µM (inactive), the GI50 (NCI-H522) was 24 µM (inactive) and the GI50 (SK-OV-3) was 25.2 µM (inactive). The GI50 (A498) was 25.8 µM (inactive), the GI50 (SN12C) was 30.5 µM (inactive) and the GI50 (UACC-62) was 28.5 µM (inactive). For the same molecule, the GI50 (SK-MEL-5) was 17.5 µM (inactive), the GI50 (DLD-1) was 41 µM (inactive) and the GI50 (SNB-19) was 58.9 µM (inactive). The GI50 (NCI-H226) was 24.2 µM (inactive), the GI50 (KM-20L2) was 11.5 µM (inactive) and the GI50 (RXF 393) was 26.7 µM (inactive). For the same molecule, the GI50 (RPMI-8226) was 19.4 µM (inactive), the GI50 (OVCAR-3) was 22.9 µM (inactive) and the GI50 (OVCAR-4) was 57.8 µM (inactive). The GI50 (HL-60) was 10.1 µM (inactive), the GI50 (SW-620) was 10.6 µM (inactive) and the GI50 (SK-MEL-28) was 33.2 µM (inactive). The GI50 (UO-31) was 20.8 µM (inactive), the GI50 (CCRF-CEM) was 16.6 µM (inactive) and the GI50 (A549) was 28.6 µM (inactive). For the same molecule, the GI50 (DMS-273) was 3.7 µM (inactive), the GI50 (M19-MEL) was 19.1 µM (inactive) and the GI50 (U-251) was 17 µM (inactive). The GI50 (LOX IMVI) was 16.2 µM (inactive), the GI50 (M14) was 16.9 µM (inactive) and the GI50 (HOP-92) was 17.8 µM (inactive). For the same molecule, the GI50 (OVCAR-5) was 27.2 µM (inactive), the GI50 (OVCAR-8) was 31.3 µM (inactive) and the GI50 (EKVX) was 31.8 µM (inactive). For the same molecule, the GI50 (HT-29) was 16.8 µM (inactive), the GI50 (TK-10) was 44.7 µM (inactive) and the GI50 (SNB-78) was 26.5 µM (inactive). For the same molecule, the GI50 (ACHN) was 40.3 µM (inactive), the GI50 (K562) was 3.77 µM (inactive) and the GI50 (SF-295) was 24.5 µM (inactive). The GI50 (HCT-116) was 18.7 µM (inactive), the GI50 (SK-MEL-2) was 18.9 µM (inactive) and the GI50 (SF-268) was 35 µM (inactive). For the same molecule, the GI50 (MOLT-4) was 11.9 µM (inactive), the GI50 (KM12) was 35.6 µM (inactive) and the GI50 (SF-539) was 16.1 µM (inactive). The GI50 (786-0) was 33 µM (inactive) and the GI50 (HOP-62) was 60.3 µM (inactive).

Source: ChEMBL document CHEMBL1201862, “PubChem BioAssay data set” (2004)
